Measurements published in patent publication US20240109892A1, “POLY(ADP-RIBOSE) GLYCOHYDROLASE (PARG) INHIBITORS AGAINST COVID MACRODOMAIN AND METHODS OF USING THE SAME” (BOARD OF REGENTS, THE UNIVERSITY OF TEXAS SYSTEM, priority 2021, published 2024).
Read-outs that look alike come from different tables or passages of the source.

Legend:
[1] = molecular target: T1, CoV-2 Mac1 (Severe acute respiratory syndrome coronavirus 2, UniProt P0DTC1); test: biochemical; assay type: binding
[2] = molecular target: T1, CoV-2 Mac1; test: Microscale thermophoresis (MST) binding affinity measurements with CoV-2 Mac1; settings: preliminary measurements
[3] = pH 7.5; cited from earlier work

| Structure (SMILES) | binding to the Mac1 domain by ITC [1] | binding to the Mac1 domain by MST [2] | ΔG ([1]; ITC, 25° C.) | ΔH ([1]; ITC, 25° C.) | −TΔS ([1]; ITC, 25° C.) | Kd ([1]; ITC, 25° C., 25 mM HEPES pH 7.5, 150 mM NaCl, read-out: Kd) | Kd ([1]; read-out: dissociation constant Kd) | pKa of morpholine nitrogen atom [3] |
| --- | --- | --- | --- | --- | --- | --- | --- | --- |
| Cn1c(=O)c2[nH]c(SCCCNC(=S)NCCN3CCOCC3)nc2n(C)c1=O [PARG-329] | fails to detect a robust interaction | micromolar affinity | – | – | – | – | – | – |
| Nc1ncnc2c1ncn2[C@@H]1O[C@H](COP(=O)(O)OP(=O)(O)OC[C@H]2OC(O)[C@H](O)[C@@H]2O)[C@@H](O)[C@H]1O (stereo partly shown) [ADPr, ADP-ribose] | – | – | -6.74 kcal/mol | -9.18 kcal/mol | 2.43 kcal/mol | 11.6 µM | 10 to 12 µM | – |
| Cn1c(=O)c2[nH]c(SCCC(=O)NS(=O)(=O)CCN3CCOCC3)nc2n(C)c1=O [PARG-345, 3-((1,3-dimethyl-2,6-dioxo-2,3,6,7-tetrahydro-1H-purin-8-yl)thio)-N-((2-morpholinoethyl)sulfonyl)propanamide] | fails to detect a robust interaction | micromolar affinity | – | – | – | – | – | ~8.3 |
